Measured values taken from PMC9762789, “Chromone-based monoamine oxidase B inhibitor with potential iron-chelating activity for the treatment of Alzheimer’s disease” (Journal of Enzyme Inhibition and Medicinal Chemistry, 2022).
Where two headings read alike, the source gives them in different places.

Tests used:
[1] = pKa determination by automated spectrophotometric titration; assay type: physicochemical; conditions: 0.1 M KCl solution
[2] = iron (III) affinity constants and pFe3+ by spectrophotometric titration; assay type: physicochemical; conditions: for Log β1 / Log β2 / Log β3: DMSO: KCl (0.1 M) = 1:1.5 (v/v); for pFe^3+: calculated from Log β values obtained in DMSO: KCl (0.1 M) = 1:1.5 (v/v)
[3] = target: T1, MAO-B (Homo sapiens, UniProt P27338); test: hMAO-B inhibition assay; assay type: biochemical; conditions: for inhibition at 0.1 µM: hMAO-B, 100 nM, read-out: Inhibitory rate (%, 100 nM)
T1 construct: purchased Sigma-Aldrich
T1 sequence (P27338 1-520): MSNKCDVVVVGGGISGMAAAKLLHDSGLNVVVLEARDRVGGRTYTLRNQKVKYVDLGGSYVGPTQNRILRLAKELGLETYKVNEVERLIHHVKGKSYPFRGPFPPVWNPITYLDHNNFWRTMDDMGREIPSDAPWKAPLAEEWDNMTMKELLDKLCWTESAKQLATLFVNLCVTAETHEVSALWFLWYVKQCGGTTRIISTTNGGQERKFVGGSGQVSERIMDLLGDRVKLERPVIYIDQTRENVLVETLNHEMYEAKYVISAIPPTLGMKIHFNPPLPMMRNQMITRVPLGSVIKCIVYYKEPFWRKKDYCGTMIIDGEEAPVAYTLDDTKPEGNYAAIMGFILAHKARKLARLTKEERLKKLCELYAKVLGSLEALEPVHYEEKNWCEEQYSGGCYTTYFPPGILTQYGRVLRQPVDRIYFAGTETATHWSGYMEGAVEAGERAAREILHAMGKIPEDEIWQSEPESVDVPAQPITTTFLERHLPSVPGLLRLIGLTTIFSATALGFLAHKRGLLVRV
Procedure: (§1) The reagents and enzymes (Human MAO-B and Human MAO-A) applied in this experiment were purchased from Sigma-Aldrich. According to the manuals, all components (substrate solution and enzyme solution) are diluted and placed aside for use. The detailed process has been mentioned in our early work[34].

[4] = target: T2, Human MAO-A (Homo sapiens, UniProt P21397); test: hMAO-A inhibition assay; assay type: biochemical; conditions: read-out: hMAO-A inhibitory rate at 10 μM; 10 μM (highest concentration tested)
T2 construct: purchased Sigma-Aldrich
T2 sequence (P21397 1-527): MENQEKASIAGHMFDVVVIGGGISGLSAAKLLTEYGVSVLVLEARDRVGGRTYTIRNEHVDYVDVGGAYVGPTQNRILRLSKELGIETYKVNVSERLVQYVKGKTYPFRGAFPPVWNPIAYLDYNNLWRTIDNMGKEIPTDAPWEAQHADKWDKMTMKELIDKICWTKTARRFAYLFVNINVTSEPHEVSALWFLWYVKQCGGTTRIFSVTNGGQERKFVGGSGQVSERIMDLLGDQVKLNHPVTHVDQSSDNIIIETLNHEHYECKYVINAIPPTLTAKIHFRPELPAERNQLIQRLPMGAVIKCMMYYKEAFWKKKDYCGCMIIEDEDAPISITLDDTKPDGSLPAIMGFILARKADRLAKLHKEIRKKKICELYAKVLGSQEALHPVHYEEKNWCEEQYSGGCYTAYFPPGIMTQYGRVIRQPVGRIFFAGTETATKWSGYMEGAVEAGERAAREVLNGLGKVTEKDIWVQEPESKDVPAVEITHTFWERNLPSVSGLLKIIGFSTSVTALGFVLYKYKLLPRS
Procedure: Further, the inhibitory activity of compounds against hMAO-A isoform was tested and calculated as a selectivity index [Selectivity index (SI): IC50 (hMAO-A)/IC50 (hMAO-B)].
as §1

## Cc1c(O)c(=O)ccn1CCNC(=O)c1coc2ccccc2c1=O [Compound 8a, N-(2–(3-hydroxy-2-methyl-4-oxopyridin-1(4H)-yl)ethyl)-4-oxo-4H-chromene-3-carboxamide]
[1]; read-out: pKa1
  pKa: 3.29
[1]; read-out: pKa2
  pKa: 9.67
[2]
  Log β1: 13.67
  Log β2: 25.22
  Log β3: 34.95
  pFe^3+: 18.68
[3]
  IC50: 0.112 ± 0.0013 µM
  SI: hMAO-B selectivity index = IC50 (hMAO-A)/IC50 (hMAO-B): >89
  inhibition at 0.1 µM: 42.2 ± 3.7%
[4]
  inhibition at 10 µM: < 20%
other
  melting point: 268 to 270 °C

## Cc1ccc2c(=O)c(C(=O)NCCn3ccc(=O)c(O)c3C)coc2c1 [Compound 8b, N-(2–(3-hydroxy-2-methyl-4-oxopyridin-1(4H)-yl)ethyl)-7-methyl-4-oxo-4H-chromene-3-carboxamide]
[1]; read-out: pKa1
  pKa: 3.32
[1]; read-out: pKa2
  pKa: 9.58
[2]
  Log β1: 13.74
  Log β2: 25.04
  Log β3: 34.36
  pFe^3+: 18.35
[3]
  inhibition at 0.1 µM: 35.79 ± 0.2%
other
  melting point: 270 to 272 °C

## Cc1ccc2occ(C(=O)NCCn3ccc(=O)c(O)c3C)c(=O)c2c1 [Compound 8c, N-(2–(3-hydroxy-2-methyl-4-oxopyridin-1(4H)-yl)ethyl)-6-methyl-4-oxo-4H-chromene-3-carboxamide]
[1]; read-out: pKa1
  pKa: 3.26
[1]; read-out: pKa2
  pKa: 9.69
[2]
  Log β1: 13.86
  Log β2: 25.07
  Log β3: 33.48
  pFe^3+: 17.19
[3]
  IC50: 0.112 ± 0.0057 µM
  SI: hMAO-B selectivity index = IC50 (hMAO-A)/IC50 (hMAO-B): >89
  inhibition at 0.1 µM: 42.1 ± 0.8%
[4]
  inhibition at 10 µM: < 20%
other
  melting point: 265 to 267 °C

## COc1ccc2c(=O)c(C(=O)NCCn3ccc(=O)c(O)c3C)coc2c1 [Compound 8d, N-(2–(3-hydroxy-2-methyl-4-oxopyridin-1(4H)-yl)ethyl)-7-methoxy-4-oxo-4H-chromene-3-carboxamide]
[1]; read-out: pKa1
  pKa: 3.2
[1]; read-out: pKa2
  pKa: 9.6
[2]
  Log β1: 13.82
  Log β2: 25.31
  Log β3: 34.23
  pFe^3+: 18.18
[3]
  IC50: 0.107 ± 0.0056 µM
  SI: hMAO-B selectivity index = IC50 (hMAO-A)/IC50 (hMAO-B): >93
  inhibition at 0.1 µM: 41.9 ± 1.4%
[4]
  inhibition at 10 µM: < 20%
other
  melting point: 248 to 250 °C

## COc1ccc2occ(C(=O)NCCn3ccc(=O)c(O)c3C)c(=O)c2c1 [Compound 8e, N-(2–(3-hydroxy-2-methyl-4-oxopyridin-1(4H)-yl)ethyl)-6-methoxy-4-oxo-4H-chromene-3-carboxamide]
[1]; read-out: pKa1
  pKa: 3.18
[1]; read-out: pKa2
  pKa: 9.67
[2]
  Log β1: 13.67
  Log β2: 25.38
  Log β3: 35.37
  pFe^3+: 19.08
[3]
  inhibition at 0.1 µM: 34.3 ± 2.2%
other
  melting point: 260 to 262 °C

## Cc1c(O)c(=O)ccn1CCNC(=O)c1coc2cc(OCc3ccccc3)ccc2c1=O [Compound 15a, 7-(Benzyloxy)-N-(2–(3-hydroxy-2-methyl-4-oxopyridin-1(4H)-yl)ethyl)-4-oxo-4H-chromene-3-carboxamide]
[1]; read-out: pKa1
  pKa: 3.3
[1]; read-out: pKa2
  pKa: 9.59
[2]
  Log β1: 13.77
  Log β2: 24.72
  Log β3: 32.17
  pFe^3+: 16.45
[3]
  inhibition at 0.1 µM: 39 ± 1.1%
other
  melting point: 225 to 227 °C

## Cc1cccc(COc2ccc3c(=O)c(C(=O)NCCn4ccc(=O)c(O)c4C)coc3c2)c1 [Compound 15b, N-(2–(3-hydroxy-2-methyl-4-oxopyridin-1(4H)-yl)ethyl)-7-((3-methylbenzyl)oxy)-4-oxo-4H-chromene-3-carboxamide]
[1]; read-out: pKa1
  pKa: 3.06
[1]; read-out: pKa2
  pKa: 9.73
[2]
  Log β1: 13.64
  Log β2: 25.57
  Log β3: 34.21
  pFe^3+: 17.80
[3]
  inhibition at 0.1 µM: 39.1 ± 1.1%
other
  melting point: 238 to 240 °C

## Cc1ccc(COc2ccc3c(=O)c(C(=O)NCCn4ccc(=O)c(O)c4C)coc3c2)cc1 [Compound 15c, N-(2–(3-hydroxy-2-methyl-4-oxopyridin-1(4H)-yl)ethyl)-7-((4-methylbenzyl)oxy)-4-oxo-4H-chromene-3-carboxamide]
[1]; read-out: pKa1
  pKa: 3.19
[1]; read-out: pKa2
  pKa: 9.34
[2]
  Log β1: 13.40
  Log β2: 23.16
  Log β3: 31.01
  pFe^3+: 15.87
[3]
  inhibition at 0.1 µM: 38.7 ± 0.5%
other
  melting point: 234 to 236 °C

## Cc1c(O)c(=O)ccn1CCNC(=O)c1coc2cc(OCc3cccc(F)c3)ccc2c1=O [Compound 15d, 7-((3-Fluorobenzyl)oxy)-N-(2–(3-hydroxy-2-methyl-4-oxopyridin-1(4H)-yl)ethyl)-4-oxo-4H-chromene-3-carboxamide]
[1]; read-out: pKa1
  pKa: 3.36
[1]; read-out: pKa2
  pKa: 9.52
[2]
  Log β1: 13.50
  Log β2: 25.31
  Log β3: 34.85
  pFe^3+: 19.01
[3]
  inhibition at 0.1 µM: 38.5 ± 1.4%
other
  melting point: 237 to 239 °C

## Cc1c(O)c(=O)ccn1CCNC(=O)c1coc2cc(OCc3ccc(F)cc3)ccc2c1=O [Compound 15e, 7-((4-Fluorobenzyl)oxy)-N-(2–(3-hydroxy-2-methyl-4-oxopyridin-1(4H)-yl)ethyl)-4-oxo-4H-chromene-3-carboxamide]
[1]; read-out: pKa1
  pKa: 2.89
[1]; read-out: pKa2
  pKa: 9.57
[2]
  Log β1: 13.24
  Log β2: 24.65
  Log β3: 34.50
  pFe^3+: 18.52
[3]
  IC50: 0.1064 ± 0.0002 µM
  SI: hMAO-B selectivity index = IC50 (hMAO-A)/IC50 (hMAO-B): >94
  inhibition at 0.1 µM: 42.4 ± 2.1%
[4]
  inhibition at 10 µM: < 20%
other
  melting point: 246 to 248 °C

## Cc1c(O)c(=O)ccn1CCNC(=O)c1coc2cc(OCc3cccc(Cl)c3)ccc2c1=O [Compound 15f, 7-((3-Chlorobenzyl)oxy)-N-(2–(3-hydroxy-2-methyl-4-oxopyridin-1(4H)-yl)ethyl)-4-oxo-4H-chromene-3-carboxamide]
[1]; read-out: pKa1
  pKa: 3.35
[1]; read-out: pKa2
  pKa: 9.52
[2]
  Log β1: 13.79
  Log β2: 25.03
  Log β3: 33.91
  pFe^3+: 18.09
[3]
  IC50: 0.1295 ± 0.0008 µM
  inhibition at 0.1 µM: 41.2 ± 2.8%
[4]
  inhibition at 10 µM: < 20%
other
  melting point: 230 to 232 °C

## Cc1c(O)c(=O)ccn1CCNC(=O)c1coc2cc(OCc3ccc(Cl)cc3)ccc2c1=O [Compound 15g, 7-((4-Chlorobenzyl)oxy)-N-(2–(3-hydroxy-2-methyl-4-oxopyridin-1(4H)-yl)ethyl)-4-oxo-4H-chromene-3-carboxamide]
[1]; read-out: pKa1
  pKa: 3.25
[1]; read-out: pKa2
  pKa: 9.56
[2]
  Log β1: 13.82
  Log β2: 24.02
  Log β3: 31.70
  pFe^3+: 16.00
[3]
  inhibition at 0.1 µM: 39.1 ± 0.5%
other
  melting point: 241 to 243 °C

## Cc1ccc(COc2ccc3c(=O)c(CNCCn4ccc(=O)c(O)c4C)coc3c2)cc1 [Compound 17h, 3-Hydroxy-2-methyl-1–(2-(((7-((4-methylbenzyl)oxy)-4-oxo-4H-chromen-3-yl)methyl)amino)ethyl)pyridin-4(1H)-one]
[1]; read-out: pKa1
  pKa: 2.56
[1]; read-out: pKa2
  pKa: 9.59
[2]
  Log β1: 12.87
  Log β2: 24.73
  Log β3: 33.36
  pFe^3+: 17.34
[3]
  inhibition at 0.1 µM: 30.1 ± 3.7%
other
  melting point: 134 to 136 °C

## Cc1c(O)c(=O)ccn1CCNCc1coc2cc(OCc3cccc(F)c3)ccc2c1=O [Compound 17i, 1–(2-(((7-((3-Fluorobenzyl)oxy)-4-oxo-4H-chromen-3-yl)methyl)amino)ethyl)-3-hydroxy-2-methylpyridin-4(1H)-one]
[1]; read-out: pKa1
  pKa: 2.58
[1]; read-out: pKa2
  pKa: 9.68
[2]
  Log β1: 12.93
  Log β2: 24.99
  Log β3: 34.10
  pFe^3+: 17.81
[3]
  inhibition at 0.1 µM: 39.48 ± 0.3%
other
  melting point: 215 to 217 °C
